The text below walks through data of ChEMBL document CHEMBL4800729 (2021).

The target in data set [1] is Tyrosine-protein kinase CSK (Homo sapiens) (UniProt P41240). Kind of data set: CSK(h) Millipore kinase panel. Particulars: Compound concentration 1.0 uM.
The target of data set [2] is Cyclin-dependent kinase 5/CDK5 activator 1 (Homo sapiens) (UniProt Q00535+Q15078). As to the kind of experiment: CDK5/p25(h) Millipore kinase panel. It is filed as protein-complex assay. Particulars: Compound concentration 1.0 uM.
For data set [3], the target named is Serine/threonine-protein kinase haspin (Homo sapiens) (UniProt Q8TF76). Kind of data set: Haspin(h) Millipore kinase panel. Particulars: Compound concentration 1.0 uM.
Data set [4] deals with 5-hydroxytryptamine receptor 3A (Homo sapiens) (UniProt P46098). Conditions: Compound concentration 10.0 uM.
Data set [5] has as its target T1, Alpha-2B adrenergic receptor (Homo sapiens) (UniProt P18089).
T1 sequence (whole entry): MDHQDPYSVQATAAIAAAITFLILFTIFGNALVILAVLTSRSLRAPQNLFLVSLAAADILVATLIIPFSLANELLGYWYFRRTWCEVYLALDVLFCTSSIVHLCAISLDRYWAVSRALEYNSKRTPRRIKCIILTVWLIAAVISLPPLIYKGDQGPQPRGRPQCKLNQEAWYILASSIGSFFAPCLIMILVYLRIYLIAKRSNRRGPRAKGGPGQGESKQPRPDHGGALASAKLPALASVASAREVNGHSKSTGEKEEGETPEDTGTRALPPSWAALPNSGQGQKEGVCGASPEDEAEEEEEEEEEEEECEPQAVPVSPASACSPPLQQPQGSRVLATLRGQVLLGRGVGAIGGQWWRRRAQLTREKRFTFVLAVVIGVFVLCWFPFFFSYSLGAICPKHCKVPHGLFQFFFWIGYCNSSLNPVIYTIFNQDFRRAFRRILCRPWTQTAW
Particulars: Compound concentration 10.0 uM.

For data set [6], the target named is Rhodopsin kinase GRK1 (Homo sapiens) (UniProt Q15835). Kind of data set: GRK1(h) Millipore kinase panel. Conditions: Compound concentration 1.0 uM.
Data set [7] deals with D(3) dopamine receptor (Homo sapiens) (UniProt P35462). Conditions: Compound concentration 10.0 uM.
For data set [8], the target named is Vascular endothelial growth factor receptor 3 (Homo sapiens) (UniProt P35916). As to the kind of experiment: Flt4(h) Millipore kinase panel. Particulars: Compound concentration 1.0 uM.
Data set [9] concerns the target Hepatocyte growth factor receptor (Homo sapiens) (UniProt P08581). As to the kind of experiment: Met(h) Millipore kinase panel. Particulars: Compound concentration 1.0 uM.
Data set [10] deals with Serine/threonine-protein kinase N1 (Homo sapiens) (UniProt Q16512). Kind of data set: PRK1(h) Millipore kinase panel. Conditions: Compound concentration 1.0 uM.
Data set [11] addresses Monoamine oxidase B (MAO-B) (Homo sapiens, UniProt P27338). Kind of data set: Inhibition of Monoamine Oxidase MAO-B at compound concentration of 10.0 uM in the Eurofins-Panlabs enzyme assay (Eurofins_assay_140120). Also on record: substrate with concentration 50 uM Kynuramine, incubation time 60 min, incubation temperature 37 C. Conditions: recombinant human MAO-B expressed in insect Hi5 cells, probe Kynuramine (50 uM), compound concentration 10 uM.

The target of data set [12] is Casein kinase I isoform alpha (Homo sapiens) (UniProt P48729). Kind of data set: CK1alpha(h) Millipore kinase panel. Conditions: Compound concentration 1.0 uM.
The target of data set [13] is Insulin receptor (Homo sapiens) (UniProt P06213). Kind of data set: IR(h) Millipore kinase panel. Conditions: Compound concentration 1.0 uM.

Activity calls are given as the source filed them. The rule behind the calls is not given here.

Chain of Insulin receptor (Homo sapiens) (P06213 28-758 limits assumed): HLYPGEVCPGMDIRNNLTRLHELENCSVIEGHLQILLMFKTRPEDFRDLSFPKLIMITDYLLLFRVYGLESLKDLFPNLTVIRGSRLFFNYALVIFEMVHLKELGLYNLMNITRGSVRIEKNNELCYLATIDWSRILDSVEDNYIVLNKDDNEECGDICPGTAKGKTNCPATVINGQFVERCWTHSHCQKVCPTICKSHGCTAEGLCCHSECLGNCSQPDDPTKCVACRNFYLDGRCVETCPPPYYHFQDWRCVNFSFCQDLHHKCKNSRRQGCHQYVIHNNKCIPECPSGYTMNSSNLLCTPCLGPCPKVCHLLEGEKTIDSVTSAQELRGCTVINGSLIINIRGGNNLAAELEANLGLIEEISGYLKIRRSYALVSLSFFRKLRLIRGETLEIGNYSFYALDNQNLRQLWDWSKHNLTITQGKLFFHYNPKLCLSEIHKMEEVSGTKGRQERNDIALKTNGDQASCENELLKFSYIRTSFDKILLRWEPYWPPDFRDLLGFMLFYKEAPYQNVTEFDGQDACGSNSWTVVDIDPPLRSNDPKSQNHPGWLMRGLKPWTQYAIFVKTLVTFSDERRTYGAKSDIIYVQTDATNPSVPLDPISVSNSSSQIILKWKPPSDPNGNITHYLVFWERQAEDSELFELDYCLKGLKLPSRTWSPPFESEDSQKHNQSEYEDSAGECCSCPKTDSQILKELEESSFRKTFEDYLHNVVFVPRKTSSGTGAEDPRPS
Chain of Insulin receptor (Homo sapiens) (P06213 763-1382 limits assumed): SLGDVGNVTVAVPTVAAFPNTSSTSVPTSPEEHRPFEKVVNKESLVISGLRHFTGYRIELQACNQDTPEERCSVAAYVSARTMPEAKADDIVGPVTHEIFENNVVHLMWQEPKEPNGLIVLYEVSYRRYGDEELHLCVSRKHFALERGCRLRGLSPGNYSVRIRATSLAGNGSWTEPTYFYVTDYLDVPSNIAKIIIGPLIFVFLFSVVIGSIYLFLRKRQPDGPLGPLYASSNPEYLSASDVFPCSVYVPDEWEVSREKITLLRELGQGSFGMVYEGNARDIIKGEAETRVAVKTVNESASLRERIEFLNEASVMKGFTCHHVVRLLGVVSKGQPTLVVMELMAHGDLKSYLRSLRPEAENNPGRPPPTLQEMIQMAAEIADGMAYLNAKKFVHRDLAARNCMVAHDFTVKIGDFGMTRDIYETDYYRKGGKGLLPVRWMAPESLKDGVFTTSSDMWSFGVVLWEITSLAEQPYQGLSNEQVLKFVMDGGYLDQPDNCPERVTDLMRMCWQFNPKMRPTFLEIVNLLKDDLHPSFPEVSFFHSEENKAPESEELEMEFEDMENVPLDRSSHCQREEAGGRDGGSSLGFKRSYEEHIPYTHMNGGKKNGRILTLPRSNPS
Chain of Serine/threonine-protein kinase haspin (Homo sapiens) (Q8TF76 whole entry): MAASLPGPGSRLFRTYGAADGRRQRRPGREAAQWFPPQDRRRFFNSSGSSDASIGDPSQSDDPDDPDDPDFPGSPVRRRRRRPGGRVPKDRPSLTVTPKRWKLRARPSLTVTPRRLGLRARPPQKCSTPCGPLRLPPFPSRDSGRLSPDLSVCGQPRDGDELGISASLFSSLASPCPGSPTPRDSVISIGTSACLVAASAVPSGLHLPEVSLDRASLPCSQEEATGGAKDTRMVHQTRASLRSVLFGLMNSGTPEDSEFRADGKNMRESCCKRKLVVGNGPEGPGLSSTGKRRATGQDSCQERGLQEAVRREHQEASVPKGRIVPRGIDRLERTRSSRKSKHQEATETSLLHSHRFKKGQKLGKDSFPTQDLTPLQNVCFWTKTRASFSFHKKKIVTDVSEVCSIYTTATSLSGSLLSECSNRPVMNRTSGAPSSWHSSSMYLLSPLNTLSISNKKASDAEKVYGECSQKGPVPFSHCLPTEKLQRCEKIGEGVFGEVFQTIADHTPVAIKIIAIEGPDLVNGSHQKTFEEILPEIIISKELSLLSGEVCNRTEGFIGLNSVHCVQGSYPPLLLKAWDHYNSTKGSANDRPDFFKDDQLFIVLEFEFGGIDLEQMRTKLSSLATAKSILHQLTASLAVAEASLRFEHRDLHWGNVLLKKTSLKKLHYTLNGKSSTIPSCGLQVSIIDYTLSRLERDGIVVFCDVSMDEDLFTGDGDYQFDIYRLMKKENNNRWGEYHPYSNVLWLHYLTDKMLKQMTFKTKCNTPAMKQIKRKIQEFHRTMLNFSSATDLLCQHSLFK
Chain of Monoamine oxidase B (MAO-B) (P27338 whole entry): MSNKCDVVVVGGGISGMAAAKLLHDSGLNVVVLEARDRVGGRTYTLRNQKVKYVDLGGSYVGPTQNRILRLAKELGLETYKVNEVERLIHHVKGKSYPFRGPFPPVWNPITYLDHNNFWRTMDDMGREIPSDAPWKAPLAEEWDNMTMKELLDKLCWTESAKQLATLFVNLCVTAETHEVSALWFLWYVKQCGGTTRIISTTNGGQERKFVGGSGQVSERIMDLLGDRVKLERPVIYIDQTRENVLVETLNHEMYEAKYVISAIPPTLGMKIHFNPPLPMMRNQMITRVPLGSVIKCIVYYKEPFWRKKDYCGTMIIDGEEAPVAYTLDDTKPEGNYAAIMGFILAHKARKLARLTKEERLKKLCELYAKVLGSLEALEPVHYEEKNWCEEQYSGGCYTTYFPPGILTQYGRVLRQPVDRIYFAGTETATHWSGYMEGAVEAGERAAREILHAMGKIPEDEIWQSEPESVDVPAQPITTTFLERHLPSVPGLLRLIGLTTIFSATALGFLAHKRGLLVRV
Chain of Casein kinase I isoform alpha (Homo sapiens) (P48729 2-337 limits assumed): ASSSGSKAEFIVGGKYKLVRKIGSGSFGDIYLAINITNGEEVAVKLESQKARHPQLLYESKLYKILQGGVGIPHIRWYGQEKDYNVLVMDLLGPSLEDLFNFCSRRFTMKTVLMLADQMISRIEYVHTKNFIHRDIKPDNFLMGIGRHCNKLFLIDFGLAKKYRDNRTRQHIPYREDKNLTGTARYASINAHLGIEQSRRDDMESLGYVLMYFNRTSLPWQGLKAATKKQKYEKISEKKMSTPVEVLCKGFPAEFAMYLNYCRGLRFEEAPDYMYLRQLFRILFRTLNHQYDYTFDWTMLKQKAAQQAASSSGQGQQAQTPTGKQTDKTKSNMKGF
Chain of Hepatocyte growth factor receptor (Homo sapiens) (P08581 whole entry): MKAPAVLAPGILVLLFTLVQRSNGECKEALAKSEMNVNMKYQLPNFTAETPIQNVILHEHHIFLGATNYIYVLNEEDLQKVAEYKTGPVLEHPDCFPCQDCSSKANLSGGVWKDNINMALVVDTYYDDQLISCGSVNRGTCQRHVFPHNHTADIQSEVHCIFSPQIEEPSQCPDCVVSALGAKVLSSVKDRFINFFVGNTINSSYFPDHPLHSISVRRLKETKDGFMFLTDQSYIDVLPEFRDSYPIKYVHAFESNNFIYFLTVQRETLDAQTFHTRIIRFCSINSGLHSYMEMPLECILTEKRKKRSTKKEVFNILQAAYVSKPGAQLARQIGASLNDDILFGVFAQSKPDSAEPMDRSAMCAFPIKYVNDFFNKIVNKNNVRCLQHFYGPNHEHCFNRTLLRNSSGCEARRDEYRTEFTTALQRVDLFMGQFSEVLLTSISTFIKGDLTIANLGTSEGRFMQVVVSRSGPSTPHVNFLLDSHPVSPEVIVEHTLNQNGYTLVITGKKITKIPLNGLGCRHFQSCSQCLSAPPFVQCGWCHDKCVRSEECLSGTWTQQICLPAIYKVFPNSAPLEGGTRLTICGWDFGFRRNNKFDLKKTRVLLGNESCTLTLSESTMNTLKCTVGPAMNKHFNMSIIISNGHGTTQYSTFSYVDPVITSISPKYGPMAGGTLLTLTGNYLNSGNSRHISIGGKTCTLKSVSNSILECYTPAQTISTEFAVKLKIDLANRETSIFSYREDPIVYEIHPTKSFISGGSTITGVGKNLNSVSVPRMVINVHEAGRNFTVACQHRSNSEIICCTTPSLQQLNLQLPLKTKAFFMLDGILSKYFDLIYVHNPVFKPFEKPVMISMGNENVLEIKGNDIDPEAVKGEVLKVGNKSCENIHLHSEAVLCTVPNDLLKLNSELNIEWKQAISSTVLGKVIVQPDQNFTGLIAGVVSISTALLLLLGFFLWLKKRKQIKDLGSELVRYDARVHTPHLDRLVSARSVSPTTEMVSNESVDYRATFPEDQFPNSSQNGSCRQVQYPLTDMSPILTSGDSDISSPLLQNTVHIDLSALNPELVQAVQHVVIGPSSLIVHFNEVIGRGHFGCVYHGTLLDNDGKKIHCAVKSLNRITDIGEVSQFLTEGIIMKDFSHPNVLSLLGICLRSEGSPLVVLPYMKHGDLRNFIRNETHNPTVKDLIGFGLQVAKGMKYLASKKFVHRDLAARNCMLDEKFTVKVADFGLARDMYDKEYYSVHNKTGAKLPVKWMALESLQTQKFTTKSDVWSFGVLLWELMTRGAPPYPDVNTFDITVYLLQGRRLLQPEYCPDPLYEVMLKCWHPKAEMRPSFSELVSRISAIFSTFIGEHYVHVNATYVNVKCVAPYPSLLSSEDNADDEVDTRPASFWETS
Chain of Tyrosine-protein kinase CSK (Homo sapiens) (P41240 2-450 limits assumed): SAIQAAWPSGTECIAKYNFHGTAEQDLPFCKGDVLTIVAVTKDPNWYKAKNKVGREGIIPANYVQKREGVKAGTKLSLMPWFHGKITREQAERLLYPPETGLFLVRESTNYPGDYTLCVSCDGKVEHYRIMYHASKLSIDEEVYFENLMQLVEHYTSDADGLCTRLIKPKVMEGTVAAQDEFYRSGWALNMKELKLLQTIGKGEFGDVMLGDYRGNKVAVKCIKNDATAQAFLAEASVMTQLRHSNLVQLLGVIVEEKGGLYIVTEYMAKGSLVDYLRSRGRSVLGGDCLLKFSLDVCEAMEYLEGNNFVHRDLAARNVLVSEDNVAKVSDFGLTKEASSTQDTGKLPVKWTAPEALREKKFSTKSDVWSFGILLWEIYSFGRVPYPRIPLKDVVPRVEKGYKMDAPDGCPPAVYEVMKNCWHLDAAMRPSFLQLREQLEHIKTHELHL

The term inhibition denotes the drop in the measured response relative to a control, in per cent. Consider `CC[C@@H](Nc1c(C#N)c(-c2ccc(-c3cccc(C)c3F)cc2)nc2cnccc12)C(=O)O` [BAY-091], for which the inhibition in [1] was 6.94%; in data set [2], 6.65%; in data set [3], 14.2%; in [4], 7.39%; in [5], -1.14%; in data set [6] it was 1.52%. The inhibition was 27% in data set [7]; 12.9% in data set [8]; 2.36% in data set [9]; 5.64% in data set [10]; 3.17% in [12]; -2.92% in [13]. Besides, in [11], the inhibition at 60 min, 10 µM is 81% (active).
